Measured values from patent US20140066385A1, “METHOD FOR TREATING CANCER BY COMBINED USE OF DRUGS” (Astellas Pharma Inc., priority 2011, published 2014).

How the values were obtained:
[1] = tested on: human breast cancer (MDA-MB-231); assay: Example 6: FK330 with paclitaxel in MDA-MB-231 tumor-bearing mice; format: in vivo, nude mice; conditions: FK330 100 mg/kg bid p.o. + paclitaxel 10 mg/kg/day i.v. (4 days each cycle), P<0.01
Procedure: The dose of FK330 is expressed in terms of the weight of a simple substance (non-hydrate). Paclitaxel was purchased from LC Laboratories, Inc. (Woburn, Mass., USA), and was used as paclitaxel.
FK330 was suspended (20 mg/mL) in a 0.5% aqueous methyl cellulose solution (0.5% MC), and was orally administered. Paclitaxel was prepared into a stock solution at 10 mg/mL with an ethanol/cremophor solution (mixed at 1:1), and then the stock solution was diluted to 1 mg/mL with physiological saline for injection (Otsuka Pharmaceutical Group) immediately before administration and was intravenously administered through the tail vein.
Human breast cancer-derived MDA-MB-231 (HTB-26) was obtained from American Type Culture Collection (VA, USA). […]
(§1) The body weight and the tumor diameter, determined by using a digital caliper, were measured twice a week. The tumor volume was calculated from the calculation formula for ellipsoid volume of (major axis×[minor axis]^2×0.5).
(§2) The results are expressed as the mean value (Mean)±standard error (SEM). […] Using the actual measured values of the tumor volume at each measurement time points, an unpaired statistical test (Student's t-test) of the difference between two groups was carried out between a single administration group and a combined use group. […]

[2] = tested on: human breast cancer (MDA-MB-468); assay: Example 11: FK330 with docetaxel in MDA-MB-468 tumor-bearing mice; format: in vivo, nude mice; conditions: FK330 100 mg/kg bid p.o. + docetaxel 15 mg/kg/day i.v. (Day 0 and Day 37)
Procedure: The dose of FK330 is expressed in terms of the weight of a simple substance (non-hydrate). Docetaxel (a docetaxel hydrate injectable preparation (Taxotere (trademark), for intravenous infusion)) was purchased from Sanofi-Aventis SA, and was used as docetaxel.
FK330 was suspended (20 mg/mL) in a 0.5% aqueous methyl cellulose solution (0.5% MC), and was orally administered. Docetaxel was prepared to a concentration of 20 mg/mL with 95% ethanol, and then diluted to 1.5 mg/mL with physiological saline for injection (Otsuka Pharmaceutical Group) immediately before administration and intravenously administered through the tail vein.
Human breast cancer-derived MDA-MB-468 (HTB-132) was obtained from American Type Culture Collection (VA, USA). […]
as §1
as §2, with “point,” for “points,”

Question: How did the “tumor volume reduction ratio compared with the paclitaxel-only group” value ([1]; Day 28) turn out when `O=C(/C=C/c1ccc(Cl)cc1)N[C@@H](Cc1ccccn1)C(=O)NCC(=O)N1CCC(Oc2cc(C(F)(F)F)ncn2)CC1` [FK330, N^2-[(2E)-3-(4-chlorophenyl)-2-propenoyl]-N-[2-oxo-2-(4-{[6-(trifluoromethyl)pyrimidin-4-yl]oxy}piperidin-1-yl)ethyl]-3-pyridin-2-yl-L-alaninamide] was run?
Answer: 59.6%

Question: What about the “tumor volume reduction ratio compared with the paclitaxel-only group” value ([1]; Day 66) of the same compound?
Answer: 82.8%

Question: What about the “tumor volume reduction ratio compared with the docetaxel-only group” value ([2]; Day 37, P<0.05) of the same compound?
Answer: 46.6%

Question: What about the “tumor volume reduction ratio compared with the docetaxel-only group” value ([2]; Day 65, P<0.01) of the same compound?
Answer: 76.6%
